Experimental data: patent US20050014817A1, “Fluorothiophene derivatives, process for preparing them and pharmaceutical compositions containing them” (Pfizer Inc, priority 2003, published 2005)

How the values were obtained:
[1] = target: MMP-12 (Homo sapiens, UniProt P39900); assay: In vitro inhibition of MMP-12 proteolysis of fluorigenic peptide FP-1; type: biochemical; details: FP-1 substrate 10 μM, 20 minutes at room temperature
Experimental: In Vitro Evaluation of the Inhibitory Activity of the Compounds of the Invention on MMP-12:
(§1) The inhibitory activity of the compounds of formula (I) on metalloprotease-12 is evaluated by testing the capacity of the compounds of the invention to inhibit the proteolysis of a peptide that is an MMP-12 substrate.
The substrate peptide used (fluorigenic peptide-1: FP-1) in the test has the following sequence: Mca-Pro-Leu-Gly-Leu-Dap(Dnp)-Ala-Arg-NH2.
The inhibitory activity of a compound of formula (I) is expressed as the IC50 value, which represents the concentration of inhibitor for which a 50% inhibition of the metalloprotease is observed.
(§2) The reaction starts with the sequential addition of 41 μl of FP-1 substrate (final concentration of 10 μM) to a buffer solution of 50 mM of Tris-HCl and 10 mM of CaCl2, and containing 5 mM of hydroxamic acid and 5 μl of the enzyme diluted in a 0.005% Brij-35 buffer solution. The microplates are incubated for 20 minutes at room temperature.
(§3) The compounds of the invention are tested at concentrations ranging from 0.3 to 30 μM.
(§4) The measurement of the amount of proteolysis of the peptide substrate is monitored by means of a measurement of absorbance at 405 nm using a microplate spectrophotometer, at room temperature. The IC50 values are calculated from curves in which the percentage of the catalytic activity relative to the control is represented on the x-axis and the inhibitor concentration is represented on the y-axis.

[2] = target: MMP-13 (Homo sapiens, UniProt P45452); assay: MMP-12 test adapted to MMP-13; type: biochemical
Experimental: as §1, §2, §3, §4
The test described above for the inhibition of MMP-12 is adapted and used to determine the capacity of the compounds of formula (I) to inhibit the metalloproteases MMP-1, MMP-2, MMP-3, MMP-7, MMP-9, MMP-13 and MMP-14.

Chain of MMP-12 (P39900 106-470): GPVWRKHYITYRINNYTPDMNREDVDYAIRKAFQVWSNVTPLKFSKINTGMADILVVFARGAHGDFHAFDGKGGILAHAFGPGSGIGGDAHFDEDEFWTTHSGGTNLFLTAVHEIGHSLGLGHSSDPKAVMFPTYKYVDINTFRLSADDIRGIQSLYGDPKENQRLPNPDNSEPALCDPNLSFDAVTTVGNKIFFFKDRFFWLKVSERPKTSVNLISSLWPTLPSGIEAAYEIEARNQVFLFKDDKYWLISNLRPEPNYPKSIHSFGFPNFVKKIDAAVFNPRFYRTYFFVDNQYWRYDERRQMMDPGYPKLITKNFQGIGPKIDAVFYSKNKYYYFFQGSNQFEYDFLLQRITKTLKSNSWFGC

Row | IC50 [1] [µM] | IC50 [2] [µM] | Compound
1 | 0.14 | 2.8 | O=C(NC[C@H]1CC[C@H](C(=O)O)CC1)c1cc(-c2ccc(OC(F)(F)F)cc2)c(F)s1 [Example 1, 4-({[5-Fluoro-4-(4-trifluoromethoxyphenyl)thien-2-yl]carboxamido}-methyl)cyclohexanecarboxylic Acid]
2 | 0.007 | 0.038 | CC(=O)c1ccc(-c2ccc(-c3cc(C(=O)NC[C@H]4CC[C@H](C(=O)O)CC4)sc3F)cc2)cc1 [Example 2, trans4-({[5-Fluoro-4-(4-[4-acetylphenyl]phenyl)thien-2-yl]carboxamido}methyl)cyclohexanecarboxylic Acid]
3 | 0.024 | 0.085 | CC(=O)c1ccc(-c2ccc(-c3cc(C(=O)N[C@H](CC(=O)O)c4ccccc4)sc3F)cc2)cc1 [Example 3, 3-(R)-Phenyl-3-({5-fluoro-4-[4-(4-acetylphenyl)phenyl]thien-2 yl}carboxamido)-propanoic Acid]
